Columns and labels:
TNF-α = TNF-α secretion by LPS-stimulated bone-marrow-derived primary macrophages (ELISA); type: cell-based, mouse; settings: LPS 100 ng/ml, 24 hours
Description: (§1) Murine bone marrow cells were obtained from femurs of wild-type mouse lines. The cells obtained were cultured (10^6/ml) for 7 days in DMEM medium (Dulbecco's modified Eagle's medium) supplemented with 20% of horse serum and 30% of L929 cell-conditioned medium. Three days after renewal of the medium, the cell preparation comprises a homogeneous population of macrophages.
(§2) The macrophages derived from the bone marrow of wild-type mice were cultured on 96-well culture plates in the proportion of 10^5 cells per well, and were then stimulated with LPS (100 ng/ml, Escherichia. coli, serotype O111:B4, Sigma) with or without PIM analog (1-10 μg/ml). All the freeze-dried PIM analog preparations used are solubilized in DMSO and added to the cultures at a noncytotoxic maximum final concentration of 1%.
(§3) After stimulation for 24 hours, the culture supernatants were collected and analyzed for their content of TNF-α, IL-6, IL-12p40 and KC cytokines by ELISA (Duoset, R&D) and for their nitrite content by means of the Griess reaction.
(§4) The macrophages derived from the bone marrow of wild-type mice were cultured on 96-well culture plates in a proportion of 10^5 cells per well, and then stimulated with LPS (100 ng/ml, Escherichia coli, serotype […], Sigma) with isoPIM1C16C18 (SFPIM219) (1-10 μg/ml) or a DMSO control. The preparation of freeze-dried SFPIM219 which is used is solubilized in DMSO and added to the cultures at a noncytotoxic maximum final concentration of 1%.
(§5) After stimulation for 24 hours, the culture supernatents were collected and analyzed for their content of cytokines TNF-α or IL-12p40 by ELISA (R&D Duoset, Minneapolis, Mo.). The results correspond to the mean±SD of n=2 mice per genotype.
(§6) The macrophages derived from the bone marrow of wild-type mice were cultured on 96-well culture plates in a proportion of 10^5 cells per well, and then stimulated with LPS (100 ng/ml, Escherichia coli, serotype O111:B4, Sigma) with PIM1 (SFPIM145), isoPIM1C16C18 (SFPIM219) or the compounds PIM-2-mimNCOCF3 (SFPIM324 t2) and PIM-2-mimNH(SFPIM324 t8) (titrated at 1, 3, 10, 30 μg/ml) or DMSO controls. The freeze-dried SFPIM145, SFPIM219, SFPIM324 t2 and SFPIM324 t8 preparations that were used are solubilized in DMSO and added to the cultures at a noncytotoxic maximum final concentration of 1%.

macrophages = experiment: MTT cytotoxicity / cell viability assay on the same macrophages; type: cell-based, mouse
IL-6 = IL-6 expression by primary macrophages stimulated with LPS with or without IFNγ (ELISA); type: cell-based, mouse; settings: LPS in the presence or absence of interferon-γ, 10 μg/ml (FIG. 5)
Description: as §1, §2, §3

IL-12p40 = IL-12p40 secretion by LPS-stimulated primary macrophages (ELISA); type: cell-based, mouse
Description: as §1, §2, §3, §4, §5, §6

KC [1] = experiment: Chemokine KC production by LPS-stimulated macrophages (ELISA); type: cell-based, mouse; settings: 10 μg/ml (FIG. 7)
Description: as §1, §2, §3

C57BL/6 mice [2] = experiment: In vivo model of respiratory distress: Penh by noninvasive plethysmography after intranasal LPS; set-up: species or system mouse
Description: (§7) C57BL/6 mice received the vehicle alone (saline with 1.25% DMSO) or LPS (1 μg per mouse) from Escherichia coli (serotype […]; Sigma, St Louis, Mo., USA) in the absence or in the presence of PIM1 (SFPIM135) or of isoPIM1-2C16 (SFPIM91) (50 μg/mouse), applied by nasal instillation in a volume of 40 μl under light anesthesia with ketamine-xylazine.
The resistance of the respiratory tracts was evaluated by noninvasive plethysmography over a period of 3 hours after the application of LPS. Awake mice were placed in plethysmography chambers (EMKA Technologies, Paris, France). The increase in respiratory pause (Penh), as measurement of respiratory discomfort, was recorded and analyzed using the Datanalyst Software (EMKA Technologies, Paris, France), and expressed as mean±SEM of Penh of n=2-3 individual mice per group.
TNF is essential for LPS-induced acute respiratory dysfunction, as has been shown in TNF-deficient mice. In order to determine the potential in vivo activity of PIM1 (SFPIM135) and isoPIM1-2C16 (SFPIM91), they were tested for their inhibitory activity in a murine model of acute pulmonary inflammation and respiratory distress induced by intranasal application of LPS (1 μg/mouse).
C57BL/6 mice received an intranasal application of 1 μg of LPS, and Penh was recorded for 200 minutes using noninvasive plethysmography. […]

C57BL/6 mice [3] = experiment: Inflammatory cell recruitment in bronchoalveolar lavage after intranasal LPS; type: in vivo, mouse
Description: as §7
(§8) The BAL fluid is collected by canulating the trachea and washing the lungs four times with 0.5 ml of cold PBS. After centrifugation at 400×g for 10 min at 4° C., the supernatant from the first lavage is stored at −70° C. for the cytokine analysis. Pools of cell pellets are counted with Trypan blue (Sigma) in a hemocytometer cell. For differential counting, the cells are stained with Diff-Quik Staining (Merz & Dade AG., Dudingen, Switzerland). Two times one hundred cells are counted.

KC [4] = experiment: KC in bronchoalveolar lavage fluid after intranasal LPS (ELISA); type: in vivo; settings: 24 hours after intranasal 1 μg LPS, coadministration 50 μg/mouse (FIG. 10)
Description: as §7, §8
(§9) The TNF and KC concentrations were evaluated by enzyme-linked immunosorbent assay (ELISA) in accordance with the instructions of the manufacturer (R&D Duoset, Minneapolis, Mo.).
Neutrophil recruitment depends on various factors, including chemokine KC, even though it is not critically dependent on TNF [23]. In FIG. 10, the treated mice are sacrificed 24 hours after the intranasal application of 1 μg of LPS and the bronchoalveolar fluid is analyzed in order to determine the chemokine KC content. […]

TNF = TNF in bronchoalveolar lavage fluid after intranasal LPS (ELISA); type: in vivo; settings: coadministration 50 μg/mouse (FIG. 11)
Description: as §7, §8, §9

[5] = test system: inflammatory cytokines and chemokines; experiment: Additional experiments: inflammatory cytokines and chemokines in lungs exposed to endotoxins; type: in vivo
[6] = titrated at 1, 3, 10, 30 μg/ml (FIG. 15)

1-O-α-D-mannopyranosyl-2-O—[((S)-2,3-dipalmitoyloxy-propyl)phosphoryl]-D-myo-inositol [isoPIM1-2C16]
TNF-α synthesis induced in LPS-stimulated macrophages (TNF-α; titrated at 1, 3 and 10 μg/ml (FIG. 3)): strongly inhibits | cytotoxicity (MTT) (macrophages; titrated at 1, 3 and 10 μg/ml (FIG. 4)): absence of cytotoxicity | expression of IL-6 by the macrophages (IL-6): also inhibited | IL-12p40 secretion in response to LPS (IL-12p40; 1 μg/ml (FIG. 6)): inhibition | production of chemokine KC (KC [1]): more strongly | enhancement of Penh induced by LPS (C57BL/6 mice [2]; 50 μg/mouse with LPS 1 μg/mouse, nasal instillation (FIG. 8)): even more pronounced | pulmonary inflammation and resistance of the respiratory tracts in response to local endotoxins (C57BL/6 mice [2]; summary of the in vivo experiments): marked inhibition | number of inflammatory cells detected in the BAL (C57BL/6 mice [3]; 18 hours after application of LPS, 50 μg/mouse intranasal (FIG. 9)): partially reduced | reduction in the number of neutrophils (C57BL/6 mice [3]; BAL, observed in 2 mice out of 3, 50 μg/mouse intranasal): ≤ 70% | secretion of KC in the bronchoalveolar space (KC [4]): greatly reduced | release of TNF in the bronchoalveolar space (TNF): more strongly | expression of several other inflammatory cytokines and chemokines in lungs exposed to endotoxins [5]: decrease in expression

CCCCCCCCCCCCCCCCCC(=O)OC[C@@H](COP(=O)(O)OC1C(O[C@H]2O[C@H](CO)[C@@H](O)[C@H](O)[C@@H]2O)CN(C(=O)C(F)(F)F)CC1O[C@H]1O[C@H](CO)[C@@H](O)[C@H](O)[C@@H]1O)OC(=O)CCCCCCCCCCCCCCC (stereo partly shown) [PIM-2-mimNCOCF3]
TNF secretion (TNF-α; [6]): strongly inhibit | IL-12p40 secretion in response to LPS (IL-12p40; 10 μg/ml (FIG. 17)): virtually abolished

CCCCCCCCCCCCCCCCCC(=O)OC[C@H](COP(=O)(O)O[C@@H]1[C@H](O)[C@@H](O)[C@H](O)[C@@H](O)[C@@H]1OC1O[C@H](CO)[C@@H](O)[C@H](O)[C@@H]1O)OC(=O)CCCCCCCCCCCCCCC (stereo partly drawn) [isoPIM1-C16C18, 1-O-α-D-mannopyranosyl-2-O—[((S)-2-O-hexadecanoyl-3-O-octadecanoylpropyl)phosphoryl]-D-myo-inositol]
TNF secretion (TNF-α; 1-10 μg/ml (FIG. 12)): strongly inhibits | TNF secretion (TNF-α; [6]): strongly inhibit | cytotoxicity on macrophages (MTT) (macrophages; titrated at 1, 3 and 10 μg/ml (FIG. 13)): lack of cytotoxicity | IL-12p40 secretion in response to LPS (IL-12p40; 1 μg/ml (FIG. 14)): greatly inhibited | IL-12p40 secretion in response to LPS (IL-12p40; 10 μg/ml (FIG. 17)): virtually abolished

CCCCCCCCCCCCCCCCCC(=O)OC[C@@H](COP(=O)(O)O[C@@H]1[C@@H](O[C@H]2O[C@H](CO)[C@@H](O)[C@H](O)[C@@H]2O)CNC[C@H]1O[C@H]1O[C@H](CO)[C@@H](O)[C@H](O)[C@@H]1O)OC(=O)CCCCCCCCCCCCCCC [PIM-2-mimNH]
TNF secretion (TNF-α; [6]): inhibit less strongly | cytotoxicity (MTT cell viability) (macrophages; at the highest concentration (FIG. 16)): a certain cytotoxicity | IL-12p40 secretion in response to LPS (IL-12p40; 10 μg/ml (FIG. 17)): partially inhibit

Reference: US8846880B2, “Synthetic analogues of phosphatidyl-myo-inositol mannosides with an inhibitory activity of the inflammatory response” (Centre National de la Recherche Scientifique—CNRS—, priority 2008, dated 2014)
